Biological target: T1, Porcine gastric H+/K+-ATPase (Sus scrofa, UniProt P19156)
T1 construct: The gastric vesicles were collected from interface on 0.25 M sucrose layer containing 7% Ficoll; from tissue; host or cells: mucous membrane of fresh porcine stomachs (gastric vesicles)
Assay: Ion-leaky porcine gastric H+/K+-ATPase inhibition
Type: biochemical
Settings: ion-leaky vesicles, 5 mM KCl, pH 6.4, 37° C., 30 minutes
Method: The porcine gastric vesicles for Porcine gastric H^+/K^+-ATPase inhibition assays were prepared from mucous membrane in fresh porcine stomachs by homogenization with a tight-fitted polytetrafluoroethylene (Teflone®) homogenizer in 0.25 M sucrose at 4° C. The crude pellet was removed with centrifugation at 20,000 g for 30 min. Then supernatant was centrifuged at 100,000 g for 30 min. The resulting pellet was re-suspended in 0.25 M sucrose, and then subjected to density gradient centrifugation at 132,000 g for 90 min. The gastric vesicles were collected from interface on 0.25 M sucrose layer containing 7% Ficoll™ PM400(Amersham Biosciences). This procedure was performed in a cold room.
Ion-leaky porcine gastric H^+/K^+-ATPase-inhibition was measured according to the modified method described in Biochemical Pharmacology, 1988, 37, 2231-2236.
The isolated vesicles were lyophilized, and then kept in deep-freezer until use. For enzyme assay, lyophilized vesicles were reconstituted with 3 mM MgSO4 containing 40 mM Bis-tris (pH 6.4 at 37° C.).
Enzyme reaction was performed incubating 5 mM KCl, 3 mM Na2ATP, 3 mM MgSO4 and 1.0 μg of reconstituted vesicles for 30 minutes at 37° C. in a final 60 μl of reaction mixture (40 mM Bis-tris, pH 6.4) with or without the test compound. Enzyme reaction was stopped by adding 10% sodium dodecyl sulphate (SDS). Released inorganic phosphate from ATP was detected by incubation with mixture of 1 part of 35 mM ammonium molybdate tetrahydrate in 15 mM Zinc acetate hydrate and 4 parts of 10% ascorbic acid (pH 5.0), resulting in phosphomolybdate, which has optical density at 750 nm.

T1 sequence (P19156 2-1034 limits assumed): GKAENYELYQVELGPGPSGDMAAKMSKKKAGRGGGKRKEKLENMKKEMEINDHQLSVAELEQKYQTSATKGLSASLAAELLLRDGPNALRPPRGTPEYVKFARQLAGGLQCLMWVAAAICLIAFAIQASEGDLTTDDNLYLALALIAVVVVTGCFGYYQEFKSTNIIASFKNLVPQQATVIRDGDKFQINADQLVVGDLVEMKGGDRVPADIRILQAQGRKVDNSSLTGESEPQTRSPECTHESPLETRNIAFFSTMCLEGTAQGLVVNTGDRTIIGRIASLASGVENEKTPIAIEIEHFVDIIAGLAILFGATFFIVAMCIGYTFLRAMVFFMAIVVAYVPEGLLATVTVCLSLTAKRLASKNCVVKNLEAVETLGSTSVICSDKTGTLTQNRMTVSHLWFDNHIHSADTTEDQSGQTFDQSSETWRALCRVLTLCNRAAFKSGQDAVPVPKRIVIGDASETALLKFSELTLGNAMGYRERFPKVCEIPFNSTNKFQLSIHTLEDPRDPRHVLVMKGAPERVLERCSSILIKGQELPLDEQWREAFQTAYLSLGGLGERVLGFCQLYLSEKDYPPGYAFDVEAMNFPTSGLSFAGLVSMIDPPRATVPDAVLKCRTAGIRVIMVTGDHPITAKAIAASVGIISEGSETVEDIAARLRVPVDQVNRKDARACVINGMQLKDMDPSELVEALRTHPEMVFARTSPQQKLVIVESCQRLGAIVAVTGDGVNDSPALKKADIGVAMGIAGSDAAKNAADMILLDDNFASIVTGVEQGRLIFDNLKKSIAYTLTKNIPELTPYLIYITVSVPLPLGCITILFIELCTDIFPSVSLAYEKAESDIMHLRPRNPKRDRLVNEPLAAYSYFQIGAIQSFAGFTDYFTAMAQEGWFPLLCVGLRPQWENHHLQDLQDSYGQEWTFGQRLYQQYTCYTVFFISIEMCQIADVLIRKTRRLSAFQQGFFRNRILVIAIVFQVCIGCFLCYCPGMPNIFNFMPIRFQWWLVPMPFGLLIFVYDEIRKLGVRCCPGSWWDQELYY
T1 sequence (P18434 whole entry partner): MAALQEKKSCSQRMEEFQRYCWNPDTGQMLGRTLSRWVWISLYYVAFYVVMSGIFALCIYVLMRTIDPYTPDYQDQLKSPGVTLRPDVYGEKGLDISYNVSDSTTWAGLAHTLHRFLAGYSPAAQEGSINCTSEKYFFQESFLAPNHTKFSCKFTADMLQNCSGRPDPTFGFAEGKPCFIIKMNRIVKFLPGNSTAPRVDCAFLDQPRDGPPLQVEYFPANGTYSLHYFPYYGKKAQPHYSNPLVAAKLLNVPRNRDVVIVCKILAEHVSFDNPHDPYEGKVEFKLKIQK

Compound | IC50 [nM]
8-3,4-Dihydro-1H-isochromen-4-ylamino)-N,N,2,3-tetramethylimidazo[1,2-a]pyridine-6-carboxamide [Example 3-1] | 103
Cc1nc2c(NC3CCOc4ccccc43)cc(C(=O)N(C)C)cn2c1C (racemic) [Example 1-1, 8-(3,4-Dihydro-2H-chromen-4-ylamino)-N,N,2,3-tetramethylimidazo[1,2-a]pyridine-6-carboxamide] | 85
Cc1nc2c(NC3COCc4ccccc43)cc(C(=O)N(C)CCO)cn2c1C (racemic) [Example 4-1, 8-(3,4-Dihydro-1H-isochromen-4-ylamino)-N-(2-hydroxyethyl)-N,2,3-trimethylimidazo[1,2-a]pyridine-6-carboxamide] | 87.1
Cc1nc2c(NC3CCOc4cc(F)ccc43)cc(C(=O)N(C)C)cn2c1C (racemic) [Example 6-1, 8-[(7-Fluoro-3,4,dihydro-2H-chromen-4-yl)amino]-N,N,2,3-tetramethylimidazo[1,2-a]pyridine-6-carboxamide] | 13.9
Cc1nc2c(NC3CCOc4cc(F)ccc43)cc(C(=O)N(C)CCO)cn2c1C (racemic) [Example 7-1, 8-[(7-Fluoro-3,4-dihydro-2H-chromen-4-yl)amino]-N-(2-hydroxyethyl)-N,2,3-trimethylimidazol[1,2-a]pyridlne-6-carboxamide] | 26.6
Cc1nc2c(NC3CCOc4cc(F)cc(F)c43)cc(C(=O)N(C)C)cn2c1C (racemic) [Example 8-1, 8-[(5,7-Difluoro-3,4-dihydro-2H-chromen-4-yl)amino]-N,N,2,3-tetramethylimidazo[1,2-a]pyridine-6-carboxamide] | 20
Cc1nc2c(NC3CCOc4c(F)cccc43)cc(C(=O)N(C)C)cn2c1C (racemic) [Example 14-1, 8-[(8-Fluoro-3,4-dihydro-2H-chromen-4-yl)amino]-N,N,2,3-tetramethylimidazo[1,2-a]pyridine-6-carboxamide] | 294
Cc1ccc2c(c1)OCCC2Nc1cc(C(=O)N(C)CCO)cn2c(C)c(C)nc12 (racemic) [Example 16-1, N-(2-Hydroxyethyl)-N,2,3-trimethyl-8-[(7-methyl-3,4-dihydro-2H-chromen-4-yl)amino]imidazo[1,2-a]pyridine-6-carboxamide] | 331
Cc1nc2c(NC3CCOc4cccc(Cl)c43)cc(C(=O)N(C)C)cn2c1C (racemic) [Example 18-1, 8-[(5-Chloro-3,4-dihydro-2H-chromen-4-yl)amino]-N,N,2,3-tetramethylimidazo[1,2-a]pyridine-6-carboxamide] | 350
Cc1nc2c(NC3CCOc4cccc(Cl)c43)cc(C(=O)N(C)CCO)cn2c1C (racemic) [Example 19-1, 8-[(5-Chloro-3,4-dihydro-2H-chromen-4-yl)amino]-N-(2-hydroxyethyl)-N,2,3-trimethylimidazo[1,2-a]pyridine-6-carboxamide] | 390
Cc1nc2c(NC3CCOc4cc(F)ccc43)cc(C(=O)N(C)C)cn2c1C (single isomer, unassigned) [Example 6-2, 8-[(7-Fluoro-3,4,dihydro-2H-chromen-4-yl)amino]-N,N,2,3-tetramethylimidazo[1,2-a]pyridine-6-carboxamide] | 40.9
Cc1nc2c(NC3CCOc4cc(F)ccc43)cc(C(=O)N(C)CCO)cn2c1C (single isomer, unassigned) [Example 7-2, 8-[(7-Fluoro-3,4-dihydro-2H-chromen-4-yl)amino]-N-(2-hydroxyethyl)-N,2,3-trimethylimidazol[1,2-a]pyridlne-6-carboxamide] | 20.5
Cc1nc2c(NC3CCOc4cc(F)cc(F)c43)cc(C(=O)N(C)C)cn2c1C (single isomer, unassigned) [Example 8-2, 8-[(5,7-Difluoro-3,4-dihydro-2H-chromen-4-yl)amino]-N,N,2,3-tetramethylimidazo[1,2-a]pyridine-6-carboxamide] | 23
Cc1nc2c(NC3CCOc4cc(F)cc(F)c43)cc(C(=O)N(C)C)cn2c1C (single isomer, unassigned) [Example 8-3, 8-[(5,7-Difluoro-3,4-dihydro-2H-chromen-4-yl)amino]-N,N,2,3-tetramethylimidazo[1,2-a]pyridine-6-carboxamide] | 49
Cc1nc2c(NC3CCOc4cc(F)cc(F)c43)cc(C(=O)N(C)CCO)cn2c1C (single isomer, unassigned) [Example 9-3, 8-[(5,7-Difluoro-3,4-dihydro-2H-chromen-4-yl)amino]-N-(2-hydroxyethyl)-N,2,3-trimethylimidazo[1,2-a]pyridine-6-carboxamide] | 53.2
Cc1nc2c(NC3CCOc4cccc(F)c43)cc(C(=O)N(C)C)cn2c1C (single isomer, unassigned) [Example 10-3, 8-[(5-Fluoro-3,4-dihydro-2H-chromen-4-yl)amino]-N,N,2,3-tetramethylimidazo[1,2-a]pyridine-6-carboxamide] | 91

Next, values leading:

IC50 [nM] | Compound
49.7 | Cc1nc2c(NC3CCOc4ccccc43)cc(C(=O)N(C)CCO)cn2c1C (racemic) [Example 2-1, 8-(3,4-Dihydro-2H-chromen-4-ylamino)-N-(2-hydroxyethyl)-N,2,3-trimethylimidazo[1,2-a]pyridine-6-carboxamide]
94.7 | Cc1cccc2c1C(Nc1cc(C(=O)N(C)CCO)cn3c(C)c(C)nc13)CCO2 (racemic) [Example 5-1, N-(2-Hydroxyethyl)-N,2,3-trimethyl-8-[(5-methyl-3,4-dihydro-2H-chromen-4-yl)amino]imidazo[1,2-a]pyridine-6-carboxamide]
50 | Cc1nc2c(NC3CCOc4cc(F)cc(F)c43)cc(C(=O)N(C)CCO)cn2c1C (racemic) [Example 9-1, 8-[(5,7-Difluoro-3,4-dihydro-2H-chromen-4-yl)amino]-N-(2-hydroxyethyl)-N,2,3-trimethylimidazo[1,2-a]pyridine-6-carboxamide]
75.1 | Cc1nc2c(NC3CCOc4cccc(F)c43)cc(C(=O)N(C)C)cn2c1C (racemic) [Example 10-1, 8-[(5-Fluoro-3,4-dihydro-2H-chromen-4-yl)amino]-N,N,2,3-tetramethylimidazo[1,2-a]pyridine-6-carboxamide]
48.6 | Cc1nc2c(NC3CCOc4cccc(F)c43)cc(C(=O)N(C)CCO)cn2c1C (racemic) [Example 11-1, 8-[(5-Fluoro-3,4-dihydro-2H-chromen-4-yl)amino]-N-(2-hydroxyethyl)-N,2,3-trimethylimidazo[1,2-a]pyridine-6-carboxamide]
20.8 | Cc1nc2c(NC3CCOc4ccc(F)cc43)cc(C(=O)N(C)C)cn2c1C (racemic) [Example 12-1, 8-[(6-Fluoro-3,4-dihydro-2H-chromen-4-yl)amino]-N,N,2,3-tetramethylimidazo[1,2-a]pyridine-6-carboxamide]
250 | Cc1nc2c(NC3CCOc4ccc(F)cc43)cc(C(=O)N(C)CCO)cn2c1C (racemic) [Example 13-1, 8-[(6-Fluoro-3,4-dihydro-2H-chromen-4-yl)amino]-N-(2-hydroxyethyl)-N,2,3-trimethylimidazol[1,2-a]pyridine-6-carboxamide]
40.9 | Cc1nc2c(NC3CCOc4c(F)cccc43)cc(C(=O)N(C)CCO)cn2c1C (racemic) [Example 15-1, 8-[(8-Fluoro-3,4-dihydro-2H-chromen-4-yl)amino]-N-(2-hydroxyethyl)-N,2,3-trimethylimidazol[1,2-a]pyridine-6-carboxamide]
64 | Cc1cccc2c1C(Nc1cc(C(=O)N(C)C)cn3c(C)c(C)nc13)CCO2 (racemic) [Example 17-1, N,N,2,3-Tetramethyl-8-[(5-methyl-3,4-dihydro-2H-chromen-4-yl)amino]imidazo[1,2-a]pyridine-6-carboxamide]
15.7 | Cc1nc2c(NC3CCOc4cc(F)ccc43)cc(C(=O)N(C)C)cn2c1C (single isomer, unassigned) [Example 6-3, 8-[(7-Fluoro-3,4,dihydro-2H-chromen-4-yl)amino]-N,N,2,3-tetramethylimidazo[1,2-a]pyridine-6-carboxamide]
55.9 | Cc1nc2c(NC3CCOc4cc(F)ccc43)cc(C(=O)N(C)CCO)cn2c1C (single isomer, unassigned) [Example 7-3, 8-[(7-Fluoro-3,4-dihydro-2H-chromen-4-yl)amino]-N-(2-hydroxyethyl)-N,2,3-trimethylimidazol[1,2-a]pyridlne-6-carboxamide]
15.9 | Cc1nc2c(NC3CCOc4cc(F)cc(F)c43)cc(C(=O)N(C)CCO)cn2c1C (single isomer, unassigned) [Example 9-2, 8-[(5,7-Difluoro-3,4-dihydro-2H-chromen-4-yl)amino]-N-(2-hydroxyethyl)-N,2,3-trimethylimidazo[1,2-a]pyridine-6-carboxamide]
51.1 | Cc1nc2c(NC3CCOc4cccc(F)c43)cc(C(=O)N(C)C)cn2c1C (single isomer, unassigned) [Example 10-2, 8-[(5-Fluoro-3,4-dihydro-2H-chromen-4-yl)amino]-N,N,2,3-tetramethylimidazo[1,2-a]pyridine-6-carboxamide]

From patent publication US20090291977A1, “Chromane Derivatives Useful As Acid Pump Antagonists” (priority 2004, published 2009)
